{
  "source": "patent US20070244009A1",
  "about": "“Agent for Inhibiting Bolting Induction and/or Floral-Bud Differentiation in Plants” (National University Corporation Hokkaido Universit, priority 2004, published 2007)",
  "key": {"[1]": {"tested_on": "spinach (Spinacia oleracea L.)", "assay": "Stem elongation (bolting) of spinach after foliar spraying", "format": "in vivo", "experimental": "(§1) In other words, while they searched for the substance having bolting induction inhibition and/or floral differentiation inhibition activities, they examine the effect of theobroxide on stem elongation and differentiation of floral-buds in spinach (long-day plant), after spraying theobroxide on the surfaces of spinach leaves. The day-length conditions examined were long-day (16 hours-light period, 8 hours-dark period), and short-day (10 hours-light period, 14 hours-dark period). The concentration of theobroxide for foliar application is set at 10^−3 M, and testing was started after a preliminary growth (two weeks, long-day condition). The spraying condition was that 5 ml of the solution was sprayed over four weeks every two days after the preliminary growth. As the results, under the short-day condition (bolting non-inducing condition), no difference was observed when compared to the control. Under the long-day condition (bolting induction and floral differentiation condition), the stem elongation of the theobroxide treated plants was suppressed 37% in the fourth week, when compared to that of the control.\n(§2) Before the test, spinach was grown for 5 weeks in a growth chamber (NK Systems, Biotron NC350), under a short-day (SD) condition (light period-10 hours/dark period-14 hours) with a peat moss/Pearlite mixture (1:1.5, v/v). A test solution was sprayed on leaves every two days. Water and Hyponex in liquid form (manufactured by Hyponex Japan Co.) were given to the plants every two days and once a week, respectively. The long-day (LD) and short-day (SD) photoperiodic cycles were 16-hour light period/8-hour dark period, and 10-hours light period/14-hour dark period, respectively. The growth chamber was equipped with 20 fluorescent lamps (NEC FL40SEX-N-HG) to provide a light intensity of 90 μmol^−2s^−1, and set at 25 degrees centigrade and the relative humidity of 60%. The test used ten plants for each processing, and was repeated at least three times.\nThe theobroxide for the test was isolated from the incubation filtrate of Lasiodiplodia theobromae. The data of NMR, RI and MS were compared with the standard one and their structures were confirmed. Theobroxide was dissolved in distilled water that includes Tween 20 (100 ppm) to adjust its concentration to 10^−3M. To the plants for the control, the same amount of distilled water including 100 ppm of Tween 20 was given. The two kinds of solution were given to leaves of the plants, the total of 5 ml per plant, every two days, using plastic spray bottles. […] Stem heights from the bases of stems to the tip of the stems or the inflorescence were measured (Plant Physiol.: 821-827,1971)."}, "[2]": {"tested_on": "spinach (Spinacia oleracea L.)", "assay": "Floral differentiation of spinach after foliar spraying", "format": "in vivo", "settings": "10^-3 M foliar spray; for Floral Differentiation Rate (%) Average: mean of three tests", "experimental": "as §1, §2\nThe theobroxide for the test was isolated from the incubation filtrate of Lasiodiplodia theobromae. The data of NMR, RI and MS were compared with the standard one and their structures were confirmed. Theobroxide was dissolved in distilled water that includes Tween 20 (100 ppm) to adjust its concentration to 10^−3M. To the plants for the control, the same amount of distilled water including 100 ppm of Tween 20 was given. The two kinds of solution were given to leaves of the plants, the total of 5 ml per plant, every two days, using plastic spray bottles. After planting them in advance, 20 boxes were transferred to the LD condition for a LD treatment (10 boxes of which was for control, and the other 10 boxes for the theobroxide treatment). After planting them in advance, 20 boxes were left under the SD for a SD treatment as before (10 boxes of which is for the control, and the other 10 boxes for theobroxide treatment). Stem heights from the bases of stems to the tip of the stems or the inflorescence were measured (Plant Physiol.: 821-827,1971).\nIn addition, in the tests shown in Table 1, plants were grown under a long-day condition for six weeks. The theobroxide treatment was started after they were transferred to the long-day condition. After six weeks, the plants were collected, and the number of the plants in which floral differentiation took place was counted."}, "[3]": {"tested_on": "potato", "settings": "culture of a single node section of a potato stem; cited from earlier work"}, "[4]": {"tested_on": "potato", "settings": "solution sprayed to leaflets of potato, non-inducing conditions; cited from earlier work"}, "[5]": {"tested_on": "morning glory", "settings": "solution sprayed to leaves of morning glory, non-inducing conditions; cited from earlier work"}, "[6]": {"tested_on": "morning glory", "settings": "in vivo; cited from earlier work"}},
  "note": "“Also recorded” adds a separate entry of the source.",
  "data": [
    {"compound": "CC1=CC(O)C2OC2C1O", "note": "(stereo not shown) [theobroxide, 3,6-dihydroxy-4,5-epoxy-1-methylcyclohexene]", "values": [
      {"measurement": "stem elongation (FIGS. 3A-B, FIG. 4), result in words", "setting": "[1]; induction condition (LD), theobroxide treatment", "value": "stem elongation was suppressed"},
      {"measurement": "suppression effect on stem lengths compared to the control", "setting": "[1]; long-day (LD) condition, 10^-3 M foliar spray, after six weeks", "value": 37, "unit": "%"},
      {"measurement": "suppression of stem elongation compared to the control", "setting": "[1]; long-day condition, 10^-3 M foliar spray, 5 ml every two days, fourth week", "value": 37, "unit": "%"},
      {"measurement": "difference in stem lengths compared to the control", "setting": "[1]; short-day condition (bolting non-inducing), 10^-3 M foliar spray", "value": "no difference; also recorded: not apparent difference"},
      {"measurement": "Floral Differentiation Rate (%) Test 1", "setting": "[2]; long-day condition, six weeks, Test 1", "value": "50% (5/10)"},
      {"measurement": "Floral Differentiation Rate (%) Test 2", "setting": "[2]; long-day condition, six weeks, Test 2", "value": "40% (4/10)"},
      {"measurement": "Floral Differentiation Rate (%) Average", "setting": "[2]; long-day condition, six weeks", "value": 43.3, "unit": "%"},
      {"measurement": "Floral Differentiation Rate (%) Average", "setting": "[2]; long-day condition, six weeks, listed as Theobroxide", "value": 43.3, "unit": "%"},
      {"measurement": "difference in flower formation compared to the control", "setting": "[2]; short-day condition", "value": "no difference; also recorded: not apparent difference"},
      {"measurement": "potato tuber formation activity", "setting": "[3]", "value": "strong potato tuber formation activity"},
      {"measurement": "potato tuber formation", "setting": "[4]", "value": "strong potato tuber formation"},
      {"measurement": "flower buds inducing activity", "setting": "[5]", "value": "flower buds inducing activity"},
      {"measurement": "effect on stem elongation of morning glory", "setting": "[6]", "value": "inhibitory effect"}
    ]}
  ]
}
